Assay: xn = mol fraction of the nth substance listed
Conditions: 298.1 K, 100 kPa

CC(=O)[O-].CC[n+]1ccn(C)c1 + CS(C)=O
Conditions | electrical conductivity [S/m]
x1 = 0.01 | 0.16
x1 = 0.029 | 0.48
x1 = 0.044 | 0.63
x1 = 0.055 | 0.73
x1 = 0.082 | 0.83
x1 = 0.165 | 1.04
x1 = 0.237 | 1.07
x1 = 0.313 | 1.01
x1 = 0.415 | 0.93
x1 = 0.513 | 0.81
x1 = 0.813 | 0.5
x1 = 1 | 0.38

CCOP(=O)([O-])OCC.CC[n+]1ccn(C)c1 + CS(C)=O
Conditions | electrical conductivity [S/m]
x1 = 0.006 | 0.1
x1 = 0.013 | 0.19
x1 = 0.04 | 0.48
x1 = 0.059 | 0.57
x1 = 0.074 | 0.62
x1 = 0.119 | 0.68
x1 = 0.169 | 0.64
x1 = 0.233 | 0.57
x1 = 0.32 | 0.5
x1 = 0.544 | 0.28

CC[n+]1ccn(C)c1.F[B-](F)(F)F + CS(C)=O
Conditions | electrical conductivity [S/m]
x1 = 0.01 | 0.25
x1 = 0.017 | 0.69
x1 = 0.021 | 0.67
x1 = 0.032 | 1.04
x1 = 0.051 | 1.24
x1 = 0.066 | 1.53
x1 = 0.097 | 1.68
x1 = 0.15 | 1.84
x1 = 0.286 | 1.67
x1 = 0.483 | 1.48
x1 = 0.782 | 1.13
x1 = 1 | 0.91

— a compilation of properties of binary mixtures (doi:10.1016/j.molliq.2019.01.093)
